Laboratory results from patent US20240391940A1, “FUSED RING-CONTAINING COMPOUND, APPLICATION THEREOF, AND COMPOSITION CONTAINING SAME” (GenEros Biopharma Ltd., priority 2020, published 2024).
Several values for one entry are separate records, joined by “and”; a condition that tells them apart may be missing. Equal entries are not always repeated.

Assays:
[1] = test system: adjuvant arthritis (AIA) rat model; test: Rat AIA (adjuvant arthritis) model; assay type: in vivo, Lewis rats; conditions: for Hind paw volume / body weight / clinical scores: 10 mg/kg daily from day 9, individual animals, 10 mg/kg
female BALB/c mice = test: Toxicity, multiple administrations for 14 days in mice; assay type: in vivo; conditions: female BALB/c mice
Experimental: • Part I: Single administration. A total of 6 mice were used. They were randomly divided into 2 groups: the vehicle control and GEN1-284s (1000 mg/kg), dosed once by oral gavage and observed for 6 days, and changes in body weight and activities were recorded. • Part II: Multiple administrations. This experiment used a total of 6 mice. They were divided into two groups of 3: a GEN1-284s-1000 mg/kg group and a GEN1-284s-300 mg/kg group, and were intragastrically given GEN1-284s for 14 consecutive days at 200 μL each. The state and survival of the mice were observed every day, and their body weights were recorded. Two mice died 2 h after GEN1-284s-1000 mg/kg administration. The dose was changed to 600 mg/kg, and the experiment was continued.
This experiment used a total of 6 mice. They were divided into two groups of 3: a GEN1-284s-1000 mg/kg group and a GEN1-284s-300 mg/kg group, and were intragastrically given GEN1-284s for 14 consecutive days at 200 μL each. The state and survival of the mice were observed every day, and their body weights were recorded. Two mice died 2 h after GEN1-284s-1000 mg/kg administration. The dose was changed to 600 mg/kg, and the experiment was continued.
Each mouse was intragastrically administered GEN1-284s for 14 consecutive days in a volume of 200 μL/20 g. The state and survival of the mice were observed every day, and their body weights were recorded. Two mice died 2 h after GEN1-284s-1000 mg/kg administration. The dose was changed to 600 mg/kg, and the experiment was continued.
Changes in body weight and survival of the mice were observed during 6 days after the single administration, and changes in body weight and the survival of the mice were observed during 14 consecutive days of high-dose GEN1-284s administration.

[2] = test system: IMQ-induced psoriasis mouse model; test: IMQ-induced psoriasis mouse model (PASI scoring); assay type: in vivo, Balb/c mice; conditions: IMQ-induced psoriasis mice; GEN1-284s 30 mg/kg PO qD
Experimental: Method: This experiment used a total of 19 mice. A natural skin observation control (n=1). 2 cm^2 of hair was shaved off the backs of […] on day 0, the stubble was removed with a mild depilatory cream, and the original skin was photographed. 62.5 mg of IMQ was applied to each of the mice. There was a mock group (n=6), a DEX (3 mg/kg, PO., qD) group (n=6), and a GEN1-284s (30 mg/kg, PO, qD) group (n=6). On the day of modeling, administration was performed in a volume of 100 μL/20 g body weight 4 h after IMQ application. The PASI scoring method was used to score the erythema, swelling and scaling on the skin of the mice. The experiment took a total of 6 days. The first day was set to day 0. IMQ application and administration were not performed on day 5. The mice were sacrificed with carbon dioxide at the end of the experiment.
The test animals were anesthetized with isoflurane. 2 cm^2 of hair was shaved off the backs of the mice, and the stubble was removed with a depilatory cream. IMQ application was performed for a total of 5 days, from day 0 to day 4. Scoring and IMQ application were performed every morning. Administration was performed in the afternoon
Desquamation (D): means epidermal cells flake off. The severity scores of skin lesions were as follows: • 0=none; this sign cannot be confirmed by careful observation • 1=mild; this sign can be confirmed but careful observation is required • 2=moderate; this sign is more visible and can be confirmed immediately • 3=severe; this sign is marked. • 4=very severe; this sign is very marked.
Induration I: 0—skin lesions are at the same level as normal skin; • 1—skin lesions are at slightly higher levels than normal skin surface; • 2—lesions moderately stick out and have round or slope-shaped borders; • 3—skin lesions are thick and markedly stick out; • 4—skin lesions are very thick and very markedly stick out.
Erythema E: • 0—no visible erythema; • 1—light red; • 2—red; • 3—dark red; • 4—the red is very dark

[3] = test system: LPS-induced production of TNF-α; test: LPS-induced TNF-α production in mice (plasma ELISA); assay type: in vivo; conditions: Balb/c mice; GEN1-284s 15 mpk intragastric, LPS 1 mpk i.p. 0.5 h after administration, plasma 2 h after LPS
Experimental: Materials and method: A total of 18 mice were used in this experiment. The mice were divided into a MOCK group (n=6), a dexamethasone group (n=6), and a GEN1-284s 15 mpk group (n=6). LPS (1 mpk) was intraperitoneally injected 0.5 h after administration. The mice were sacrificed 2 h after the LPS injection, and blood samples were taken. The blood samples were left in EDTA-K2 anticoagulant tubes at room temperature for 20 min and centrifuged at 8000 rpm for 10 min. The plasma was separated and cryopreserved at −80° C. before analysis.
LPS (1 mpk) was intraperitoneally injected 0.5 h after administration. The mice were sacrificed 2 h after the LPS injection, and blood samples were taken. The blood samples were left in EDTA-K2 anticoagulant tubes at room temperature for 20 min and centrifuged at 8000 rpm for 10 min. The plasma was separated and cryopreserved at −80° C. before analysis.
The mice were tested for TNF-α level with ELISA kits, and the inhibitory effect of GEN1-284s on the TNF-α level was evaluated.
According to the instructions for use, a standard curve formula (y=0.0038x+0.1206, R^2=0.9956) was obtained and can be used to calculate detection values.

[4] = 300 mg/kg intragastric for 14 consecutive days

Structure (SMILES): O=C(Cc1ccc2ncccc2c1)N1CCC(n2c(=O)[nH]c3cccc(C(F)(F)F)c32)CC1 [GEN1-117, 1-(1-(2-(Quinolin-6-yl)acetyl)piperidin-4-yl)-7-(trifluoromethyl)-1H-benzo[d]imidazol-2(3H)-one]
- Maximum arthritis index score compared to the control rats [1]: can effectively relieve the AIA rat arthritis disease model
- Body weight change ([1]; AIA rats, GEN1-117 intervention group): gained significant weight
- Increase in hind paw volume and clinical score ([1]; AIA rats, daily intraperitoneal injection): dose-dependently inhibited
- Hind paw volume ([1]; AIA rats, day 9): 1.23 and 1.41 and 1.46 and 1.38 (2×) and 1.18 and 1.15 and 1.31 and 1.35 and 1.12 and 1.68 and 1.27
- body weight ([1]; AIA rats, day 9): 166 g and 154 g (2×) and 153 g (2×) and 158 g and 145 g and 169 g (2×) and 175 g and 168 g and 164 g
- clinical scores ([1]; AIA rats, day 9): 0 (9×) and 0.17 and 1 (2×)
- body weight ([1]; AIA rats, day 10): 156 g and 151 g and 155 g and 152 g (2×) and 143 g and 135 g and 159 g and 165 g and 158 g (3×)
- Hind paw volume ([1]; AIA rats, day 11): 1.19 and 1.3 (2×) and 1.65 and 0.97 and 1.17 and 1.18 (2×) and 1.13 and 1.08 and 1.92 and 1.23
- body weight ([1]; AIA rats, day 11): 156 g and 150 g and 153 g and 152 g and 140 g and 132 g and 155 g (2×) and 164 g and 158 g and 157 g and 146 g
- clinical scores ([1]; AIA rats, day 11): 0 (8×) and 0.75 and 2.5 and 1.5 and 0.5
- body weight ([1]; AIA rats, day 12): 158 g and 153 g and 154 g and 155 g and 143 g and 137 g and 159 g and 164 g and 160 g and 156 g and 162 g and 148 g
- Hind paw volume ([1]; AIA rats, day 13): 1.25 (2×) and 1.93 and 2.35 and 1.08 and 1.26 (2×) and 0.84 and 1.38 and 1.03 and 2.32 and 1.28
- body weight ([1]; AIA rats, day 13): 157 g and 158 g and 155 g and 159 g and 145 g and 143 g and 161 g (2×) and 167 g and 165 g and 169 g and 149 g
- clinical scores ([1]; AIA rats, day 13): 0 (7×) and 1 (2×) and 3 and 0.17 and 1.67
- body weight ([1]; AIA rats, day 14): 164 g (2×) and 160 g and 155 g and 166 g and 151 g and 150 g (2×) and 170 g (2×) and 173 g and 172 g
- Hind paw volume ([1]; AIA rats, day 15): 1.27 (2×) and 2.03 and 2.2 and 1.04 and 1.1 and 1.38 and 1.08 and 1.11 and 1.26 and 2.93 and 1.66
- body weight ([1]; AIA rats, day 15): 162 g and 159 g and 151 g (2×) and 169 g and 154 g and 176 g and 174 g (2×) and 170 g and 175 g and 149 g
- clinical scores ([1]; AIA rats, day 15): 0 (4×) and 2 (2×) and 5.5 and 0.17 (4×) and 3.5
- body weight ([1]; AIA rats, day 16): 165 g and 164 g and 158 g and 135 g and 156 g and 155 g and 180 g and 177 g and 179 g and 175 g and 176 g and 147 g
- body weight ([1]; AIA rats, day 17): 169 g and 170 g and 152 g and 181 g
- clinical scores ([1]; AIA rats, day 17): 0 (8×) and 1.83 (2×) and 5 and 3.5
- Hind paw volume ([1]; AIA rats, day 17, in mL (unit assumed)): 1.14 and 2.03 and 1.62 and 0.88 and 1.12 and 1.28 and 1.06 and 1.41 and 1.09 and 1.03 and 2.61 and 1.88
- clinical scores ([1]; AIA rats, day 19): 0 (7×) and 2.5 and 4 and 0.5 and 2 and 4.25
- Hind paw volume ([1]; AIA rats, day 19, in mL (unit assumed)): 1.42 and 3.18 and 2.26 and 1.39 and 1.25 and 1.37 and 1.26 and 1.65 and 1.28 and 1.38 and 2.43 and 2.78
- Hind paw volume ([1]; AIA rats, day 21): 1 and 3.15 and 1.95 and 1.08 (2×) and 0.86 and 1.09 and 1.33 and 1.04 and 1.14 and 2.65 and 2.14
- clinical scores ([1]; AIA rats, day 21): 0 (7×) and 2.67 and 5.33 and 0.5 and 2 and 4.17
- Hind paw volume ([1]; AIA rats, day 23): 0.99 and 3.36 and 2.21 and 1.25 and 0.88 and 0.93 and 0.96 and 1.26 and 1.08 (2×) and 2.87 and 1.89
- clinical scores ([1]; AIA rats, day 23): 0 (7×) and 3 and 4 (2×) and 0.5 and 2.5
- Clinical scores compared to the control rats ([1]; days 13-23): significant reductions in clinical scores
- Hind paw volume compared to the control rats ([1]; days 17-23): significantly decreased

Structure (SMILES): O=C(Cc1ccc2ncccc2c1)N1CCC(n2c(=O)n(COP(=O)([O-])[O-])c3cccc(C(F)(F)F)c32)CC1.[Na+].[Na+] [GEN1-284 salt, (2-Oxo-3-(1-(2-(quinolin-6-yl)acetyl)piperidin-4-yl)-4-(trifluoromethyl)-2,3-dihydro-1H-benzo[d]imidazol-1-yl)methyl disodium phosphate]
- Change in body weight (female BALB/c mice; [4]): no significant change in body weight
- Survival (female BALB/c mice; [4]): did not affect the survival of the mice
- Number of mice that died (female BALB/c mice; 600 mg/kg group, Day 4): 1 mouse
- Number of mice that died 2 h after administration (female BALB/c mice; 1000 mg/kg intragastric, day 1, group of 3): 2 mice
- Time within which all mice died (female BALB/c mice; continuous administration of 600 mg/kg): ≤ 5 days
- Swelling of the skin [2]: partially ameliorate the psoriatic swelling
- Inhibition rate against LPS-induced TNF-α [3]: 36%
